Assay results reported in the supplement of paper PMC10307832.

How the values were obtained:
Test in all cases: relative viability (nuclei count vs DMSO), 5 days (fraction); higher = more cells survive
SK-MES-1 = system: SK-MES-1
Outline: (§1)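 Relative viability equals treated-well nuclei counts divided by vehicle-well nuclei counts. Counts came from 4× images of lung cancer cell lines grown in 1536-well plates for 5 days after pin-tool dosing on the day after seeding. Dosing used one drug alone or a fixed anchor-drug dose plus five library-drug doses (not always all listed) in √10 steps, and values are medians of duplicate plates.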

NCI-H2170 = system: NCI-H2170
Outline: as §1

NCI-H647 = system: NCI-H647
Outline: as §1

HCC-827 = system: HCC-827
Outline: as §1

NCI-H1437 = system: NCI-H1437
Outline: as §1

NCI-H1395 = system: NCI-H1395
Outline: as §1

NCI-H1734 = system: NCI-H1734
Outline: as §1

SK-LU-1 = system: SK-LU-1
Outline: as §1

NCI-H1993 = system: NCI-H1993
Outline: as §1

NCI-H2342 = system: NCI-H2342
Outline: as §1

HARA = system: HARA
Outline: as §1

HCC-366 = system: HCC-366
Outline: as §1

NCI-H661 = system: NCI-H661
Outline: as §1

NCI-H1355 = system: NCI-H1355
Outline: as §1

NCI-H2009 = system: NCI-H2009
Outline: as §1

NCI-H2087 = system: NCI-H2087
Outline: as §1

LOU-NH91 = system: LOU-NH91
Outline: as §1

EKVX = system: EKVX
Outline: as §1

NCI-H2405 = system: NCI-H2405
Outline: as §1

BEN = system: BEN
Outline: as §1

O=c1cc(N2CCOCC2)oc2c(-c3cccc4c3sc3ccccc34)cccc12 + COc1cc2c(Oc3ccc(NC(=O)C4(C(=O)Nc5ccc(F)cc5)CC4)cc3F)ccnc2cc1OCCCN1CCOCC1 [Foretinib] (partner 0.25 µM)
relative viability (SK-MES-1; first compound 0.01 µM): 1.13 | relative viability (SK-MES-1; first compound 0.03162 µM): 0.771 | relative viability (SK-MES-1; first compound 0.1 µM): 0.847 | relative viability (SK-MES-1; first compound 0.3162 µM): 0.968 | relative viability (SK-MES-1; first compound 1 µM): 0.91 | relative viability (NCI-H2170; first compound 0.01 µM): 0.968 | relative viability (NCI-H2170; first compound 0.03162 µM): 0.542 | relative viability (NCI-H2170; first compound 0.1 µM): 1.03 | relative viability (NCI-H2170; first compound 0.3162 µM): 0.935 | relative viability (NCI-H2170; first compound 1 µM): 0.942 | relative viability (NCI-H647; first compound 0.01 µM): 1.24 | relative viability (NCI-H647; first compound 0.03162 µM): 1.34 | relative viability (NCI-H647; first compound 0.1 µM): 1.34 | relative viability (NCI-H647; first compound 0.3162 µM): 1.24 | relative viability (NCI-H647; first compound 1 µM): 1.08 | relative viability (HCC-827; first compound 0.01 µM): 1.01 | relative viability (HCC-827; first compound 0.03162 µM): 1.11 | relative viability (HCC-827; first compound 0.1 µM): 1.03 | relative viability (HCC-827; first compound 0.3162 µM): 1.04 | relative viability (HCC-827; first compound 1 µM): 1.03 | relative viability (NCI-H1437; first compound 0.01 µM): 0.877 | relative viability (NCI-H1437; first compound 0.03162 µM): 1.28 | relative viability (NCI-H1437; first compound 0.1 µM): 1.26 | relative viability (NCI-H1437; first compound 0.3162 µM): 1.25 | relative viability (NCI-H1437; first compound 1 µM): 1.23 | relative viability (NCI-H1395; first compound 0.01 µM): 0.995 | relative viability (NCI-H1395; first compound 0.03162 µM): 0.915 | relative viability (NCI-H1395; first compound 0.1 µM): 0.973 | relative viability (NCI-H1395; first compound 0.3162 µM): 1.17 | relative viability (NCI-H1395; first compound 1 µM): 0.986 | relative viability (NCI-H1734; first compound 0.01 µM): 0.851 | relative viability (NCI-H1734; first compound 0.03162 µM): 1.03 | relative viability (NCI-H1734; first compound 0.1 µM): 0.894 | relative viability (NCI-H1734; first compound 0.3162 µM): 0.837 | relative viability (NCI-H1734; first compound 1 µM): 0.78 | relative viability (SK-LU-1; first compound 0.01 µM): 0.893 | relative viability (SK-LU-1; first compound 0.03162 µM): 0.918 | relative viability (SK-LU-1; first compound 0.1 µM): 0.789 | relative viability (SK-LU-1; first compound 0.3162 µM): 0.834 | relative viability (SK-LU-1; first compound 1 µM): 0.768 | relative viability (NCI-H1993; first compound 0.01 µM): 0.681 | relative viability (NCI-H1993; first compound 0.03162 µM): 0.845 | relative viability (NCI-H1993; first compound 0.1 µM): 0.878 | relative viability (NCI-H1993; first compound 0.3162 µM): 0.765 | relative viability (NCI-H1993; first compound 1 µM): 0.748 | relative viability (NCI-H2342; first compound 0.01 µM): 1.04 | relative viability (NCI-H2342; first compound 0.03162 µM): 1.11 | relative viability (NCI-H2342; first compound 0.1 µM): 0.997 | relative viability (NCI-H2342; first compound 0.3162 µM): 1.04 | relative viability (NCI-H2342; first compound 1 µM): 1.07 | relative viability (HARA; first compound 0.01 µM): 0.768 | relative viability (HARA; first compound 0.03162 µM): 0.897 | relative viability (HARA; first compound 0.1 µM): 0.857 | relative viability (HARA; first compound 0.3162 µM): 0.864 | relative viability (HARA; first compound 1 µM): 0.903 | relative viability (HCC-366; first compound 0.01 µM): 0.941 | relative viability (HCC-366; first compound 0.03162 µM): 0.918 | relative viability (HCC-366; first compound 0.1 µM): 0.99 | relative viability (HCC-366; first compound 0.3162 µM): 0.961 | relative viability (HCC-366; first compound 1 µM): 0.853 | relative viability (NCI-H661; first compound 0.01 µM): 0.996 | relative viability (NCI-H661; first compound 0.03162 µM): 1.05 | relative viability (NCI-H661; first compound 0.1 µM): 1.03 | relative viability (NCI-H661; first compound 0.3162 µM): 0.947 | relative viability (NCI-H661; first compound 1 µM): 1.03 | relative viability (NCI-H1355; first compound 0.01 µM): 0.962 | relative viability (NCI-H1355; first compound 0.03162 µM): 1.01 | relative viability (NCI-H1355; first compound 0.1 µM): 0.952 | relative viability (NCI-H1355; first compound 0.3162 µM): 0.986 | relative viability (NCI-H1355; first compound 1 µM): 0.917 | relative viability (NCI-H2009; first compound 0.01 µM): 1.19 | relative viability (NCI-H2009; first compound 0.03162 µM): 1.21 | relative viability (NCI-H2009; first compound 0.1 µM): 1.23 | relative viability (NCI-H2009; first compound 0.3162 µM): 1.22 | relative viability (NCI-H2009; first compound 1 µM): 1.11 | relative viability (NCI-H2087; first compound 0.01 µM): 1.09 | relative viability (NCI-H2087; first compound 0.03162 µM): 1.4 | relative viability (NCI-H2087; first compound 0.1 µM): 1.28 | relative viability (NCI-H2087; first compound 0.3162 µM): 1.24 | relative viability (NCI-H2087; first compound 1 µM): 1.2 | relative viability (LOU-NH91; first compound 0.01 µM): 0.869 | relative viability (LOU-NH91; first compound 0.03162 µM): 0.938 | relative viability (LOU-NH91; first compound 0.1 µM): 1 | relative viability (LOU-NH91; first compound 0.3162 µM): 0.927 | relative viability (LOU-NH91; first compound 1 µM): 0.955 | relative viability (EKVX; first compound 0.01 µM): 0.973 | relative viability (EKVX; first compound 0.03162 µM): 1.05 | relative viability (EKVX; first compound 0.1 µM): 0.818 | relative viability (EKVX; first compound 0.3162 µM): 0.628 | relative viability (EKVX; first compound 1 µM): 0.59 | relative viability (NCI-H2405; first compound 0.01 µM): 1.07 | relative viability (NCI-H2405; first compound 0.03162 µM): 1.07 | relative viability (NCI-H2405; first compound 0.1 µM): 1.12 | relative viability (NCI-H2405; first compound 0.3162 µM): 1.03 | relative viability (NCI-H2405; first compound 1 µM): 1.02 | relative viability (BEN; first compound 0.01 µM): 0.548 | relative viability (BEN; first compound 0.03162 µM): 0.861 | relative viability (BEN; first compound 0.1 µM): 0.57 | relative viability (BEN; first compound 0.3162 µM): 0.701 | relative viability (BEN; first compound 1 µM): 0.578
